The target of the assay is T1, T1R1/T1R3 umami receptor (Homo sapiens, UniProt Q7RTX0+Q7RTX1, C757R).
T1 construct: expressed in transfected cells; host or cells: HEK293 cells stably expressing Gα15, transiently transfected
T1 sequence (Q7RTX1 21-841): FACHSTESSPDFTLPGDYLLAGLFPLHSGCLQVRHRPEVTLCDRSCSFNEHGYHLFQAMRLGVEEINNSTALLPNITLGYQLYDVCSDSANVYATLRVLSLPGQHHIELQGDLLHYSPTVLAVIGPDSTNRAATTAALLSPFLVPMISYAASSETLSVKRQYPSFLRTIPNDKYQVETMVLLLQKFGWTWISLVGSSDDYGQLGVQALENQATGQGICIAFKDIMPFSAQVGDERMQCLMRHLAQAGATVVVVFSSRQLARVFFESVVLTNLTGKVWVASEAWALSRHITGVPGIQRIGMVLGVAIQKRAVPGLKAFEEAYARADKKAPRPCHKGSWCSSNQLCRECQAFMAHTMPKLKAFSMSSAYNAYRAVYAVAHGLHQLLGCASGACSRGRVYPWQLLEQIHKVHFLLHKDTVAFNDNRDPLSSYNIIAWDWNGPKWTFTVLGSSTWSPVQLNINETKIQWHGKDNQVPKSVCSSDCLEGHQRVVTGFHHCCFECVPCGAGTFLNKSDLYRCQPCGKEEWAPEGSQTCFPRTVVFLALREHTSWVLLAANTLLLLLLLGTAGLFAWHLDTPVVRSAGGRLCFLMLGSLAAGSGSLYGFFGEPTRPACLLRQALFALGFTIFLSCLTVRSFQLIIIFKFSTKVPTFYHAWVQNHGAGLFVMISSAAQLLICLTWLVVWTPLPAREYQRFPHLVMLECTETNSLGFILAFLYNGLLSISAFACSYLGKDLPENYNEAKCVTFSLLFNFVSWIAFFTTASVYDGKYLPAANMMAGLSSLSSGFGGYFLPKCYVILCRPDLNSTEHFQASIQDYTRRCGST
T1 sequence (Q7RTX0 21-852 C757R): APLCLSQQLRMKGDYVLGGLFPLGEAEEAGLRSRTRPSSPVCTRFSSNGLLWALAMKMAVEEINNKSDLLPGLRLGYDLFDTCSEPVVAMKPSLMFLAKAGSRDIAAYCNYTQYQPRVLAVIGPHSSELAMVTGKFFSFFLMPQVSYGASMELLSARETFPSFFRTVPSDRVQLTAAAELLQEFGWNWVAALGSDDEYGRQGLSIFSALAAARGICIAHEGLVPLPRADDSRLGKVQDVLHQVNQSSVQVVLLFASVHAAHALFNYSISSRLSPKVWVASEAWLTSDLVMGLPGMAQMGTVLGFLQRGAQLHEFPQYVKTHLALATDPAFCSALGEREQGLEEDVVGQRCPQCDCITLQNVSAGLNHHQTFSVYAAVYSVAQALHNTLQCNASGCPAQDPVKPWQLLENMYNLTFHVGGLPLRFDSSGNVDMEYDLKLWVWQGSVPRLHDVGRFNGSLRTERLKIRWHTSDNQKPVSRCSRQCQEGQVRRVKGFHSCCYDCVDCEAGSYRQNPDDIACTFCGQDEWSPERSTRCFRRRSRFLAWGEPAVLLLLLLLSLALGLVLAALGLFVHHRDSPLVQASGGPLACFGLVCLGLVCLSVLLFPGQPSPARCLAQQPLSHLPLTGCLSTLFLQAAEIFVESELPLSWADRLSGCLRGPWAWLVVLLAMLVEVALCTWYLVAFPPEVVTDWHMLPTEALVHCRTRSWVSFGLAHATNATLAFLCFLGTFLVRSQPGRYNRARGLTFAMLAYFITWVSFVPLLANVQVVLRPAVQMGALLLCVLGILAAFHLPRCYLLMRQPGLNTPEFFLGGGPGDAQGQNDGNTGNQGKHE
In words: Calcium-based receptor assay (release of intracellular calcium, Fluo-4-AM). It is filed as cell-based. Further details: key to T1R1/T1R3 receptor-specific signal, Calcium assay: +: For the calcium assay, cells expressing the umami receptor and Gα15 are compared with cells expressing Gα15 only; the difference between these signals is defined as umami receptor-specific signal; −: it was not possible to achieve umami receptor-specific signals using representative extracts and other complex mixtures using the calcium-based receptor assay. To be noted: for release of intracellular calcium, T1R1/T1R3 umami receptor, average / release of intracellular calcium, T1R1/T1R3 umami receptor, meas. 1 / release of intracellular calcium, T1R1/T1R3 umami receptor, meas. 2: change in fluorescence (ΔF). The method, then:
FIG. 1 Activation of the T1R1/T1R3 umami receptor expressed in HEK293-Gα15 cells as measured by monitoring the release of intracellular calcium using the calcium fluorescent marker Fluo-4-AM as described in Example 2. Activity of the umami receptor was measured as the change in fluorescence which was calculated by subtracting the […]. Test solutions comprise extracts as indicated and prepared as described in Example 2. […]
We developed a unique functional umami receptor assay to evaluate and quantify umami in tomato and other crude plant or food extracts using the BRET technique: to test the principle we used the donor and acceptor proteins relating to BRET-2. In short, the human T1R1 and T1R3 taste receptors were cloned and fused with Renilla luciferase (Rluc) as donor protein; green fluorescent protein-2 (GFP2) served as acceptor protein and was fused to β-arrestin-2. Both constructs were transfected into a HEK293 cell line cells) for heterologous expression of the proteins. Various mammalian cell lines have been reported to be highly suitable for expression of receptors or other proteins, with HEK293 (human embryonic kidney) cells and CHO (Chinese hamster ovary) cells being some of the most versatile and suitable ones^12. Similarly, GPCRs can be expressed in various ways as described in multiple publications, such as transient^6, 8, 13-15 or stable (constitutive or inducible)^6, 9, 16, 17 expression, depending on the nature of the experiment, the respective receptor or the available time. Upon receptor stimulation with an agonist or crude extracts, the β-arrestin-2/GFP-2 protein interacts with the activated receptor thus bringing GFP-2 in close proximity with luciferase, making energy transfer between these two proteins possible and generating a BRET signal. In the presence of oxygen the luciferase catalyses the transformation of the substrate DeepBlueC into coelenteramide, which can be measured at 395-410 nm. If GFP-2 is in close proximity to the luciferase and energy transfer takes place, the emission will shift to 510 nm; this is referred to as the BRET signal and is expressed as ratio between the acceptor (GFP-2) and the donor (Renilla luciferase). The following experiments are designed to illustrate that conventional calcium-based functional receptor assays are not suitable for measuring the effects of crude extracts; in contrast, the BRET assay (as indicated here with umami) can clearly measure specific receptor responses using crude natural extracts. Moreover, the assay is also sensitive enough for detecting differences of receptor activation between the different tomato samples. Materials & Methods: Chemicals and Media: Fluo-4 AM was from Molecular Probes (# F-14202, prepared as 5 mM stock in DMSO), DMEM (with 4.5 g/l glucose and ultraglutamine, # BE12-604F) was from Lonza, trypsin-EDTA, Lipofectamine 2000, OptiMem and FCS were obtained from Life Technologies Invitrogen. Monosodium glutamate (MSG), Inosine 5′-monophosphate as well as all other chemicals were from Sigma-Aldrich. The plasmid encoding GFP2-β-arrestin-2 was purchased from BioSignal Packard (#6310176). Coelenterazine 400A (a DeepBlueC derivative) and Coelenterazine-H were from VWR International (# BTIU10125-1 and 233903-50, respectively). All other cell culture supplies were from Greiner BioOne. Receptor Fusion Constructs, Cell Lines, and Media: The human T1R1 and human T1R3 umami receptors were fused at their C-terminal in frame to Renilla Luciferase (Rluc) using standard molecular cloning techniques and the codon-humanized pRluc-N3 vector from PerkinElmer (#6310220). For expression of the umami receptors and the construct encoding GFP-2/β-arrestin-2, HEK293 cells (human embryonic kidney cells, ATCC) were used using traditional transfection methods (see also below). HEK293 cells were maintained in DMEM and 10% FBS at 37° C./5% CO2. […]
Background: A change in cytosolic calcium serves as a functional read-out for many receptors and channels.

The text below walks through data of patent US8795977B2, “Method for screening a potential modulator compound of a taste receptor” (Conopco, Inc., priority 2009, dated 2014).

In the case of `N[C@@H](CCC(=O)O)C(=O)[O-].[Na+]` [MSG, Monosodium glutamate], the “release of intracellular calcium, T1R1/T1R3 umami receptor, average” value is recorded as 1170 (100 μM MSG), 3269 (1 mM MSG) and 6749 (10 mM MSG). Further, the “release of intracellular calcium, T1R1/T1R3 umami receptor, meas. 1” value reads like this: (100 μM MSG) 1146; (1 mM MSG) 2548; (10 mM MSG) 5766. Besides, the “release of intracellular calcium, T1R1/T1R3 umami receptor, meas. 2” value came out at 1193 (100 μM MSG), 3990 (1 mM MSG) and 7732 (10 mM MSG). Besides, the “T1R1/T1R3 receptor-specific signal, Calcium assay” value (MSG 10 mM) is recorded as “+”. The “umami receptor-specific response in the calcium-based receptor assay (in words)” value (receptor-expressing versus control cells) was “umami receptor-specific responses”.
